Source: PubChem BioAssay AID248 (DTP/NCI, 2004)
Several values for one entry are separate records, joined by “and”; a condition that tells them apart may be missing. Identical values can stand only once. Inconclusive results and toxic doses are left out. Rule as the data show it: active = T/C of 150% or more; inactive = T/C below 125%.

Tested on: L1210 leukemia ip in BDF1 mice, survival T/C
Assay: NCI In Vivo Anticancer Drug Screen. Data for tumor model L1210 Leukemia (intraperitoneal) in B6D2F1 (BDF1) mice
Conditions: endpoint: mean survival time, higher = longer survival
Outline: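 Antitumor effect is assessed in tumor-bearing animals. Survival in the compound arm is compared with a vehicle-dosed control arm and expressed as their quotient.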

[1] = dose: 100.0 mg/kg/injection, schedule: Q01DX001 (ip), vehicle: saline
[2] = dose: 200.0 mg/kg/injection, schedule: Q01DX001 (ip), vehicle: saline
[3] = dose: 400.0 mg/kg/injection, schedule: Q01DX001 (ip), vehicle: saline
[4] = dose: 100.0 mg/kg/injection, schedule: Q01DX009 (ip), vehicle: Klucel (hydroxypropylcellulose) (HPC)
[5] = dose: 200.0 mg/kg/injection, schedule: Q01DX009 (ip), vehicle: Klucel (hydroxypropylcellulose) (HPC)
[6] = dose: 75.0 mg/kg/injection, schedule: Q01DX001 (ip), vehicle: saline
[7] = dose: 150.0 mg/kg/injection, schedule: Q01DX001 (ip), vehicle: saline
[8] = dose: 25.0 mg/kg/injection, schedule: Q01DX009 (ip), vehicle: saline with Tween-80
[9] = dose: 50.0 mg/kg/injection, schedule: Q01DX009 (ip), vehicle: saline with Tween-80
[10] = dose: 100.0 mg/kg/injection, schedule: Q01DX009 (ip), vehicle: saline with Tween-80
[11] = dose: 100.0 mg/kg/injection, schedule: Q04DX003 (ip), vehicle: Klucel (hydroxypropylcellulose) (HPC)
[12] = dose: 200.0 mg/kg/injection, schedule: Q04DX003 (ip), vehicle: Klucel (hydroxypropylcellulose) (HPC)
[13] = dose: 400.0 mg/kg/injection, schedule: Q04DX003 (ip), vehicle: Klucel (hydroxypropylcellulose) (HPC)

Measured: T/C

CCOC(=O)c1cn[nH]c1/N=N/N(C)C
inactive: dose: 42.0 mg/kg/injection, schedule: Q01DX009 (ip), vehicle: carboxymethylcellulose (CMC) 113 % of control | dose: 178.0 mg/kg/injection, schedule: Q01DX001 (ip), vehicle: carboxymethylcellulose (CMC) 110 % of control | dose: 267.0 mg/kg/injection, schedule: Q01DX001 (ip), vehicle: carboxymethylcellulose (CMC) 112 % of control

COC1=C(NCCc2ccc(OC)c(OC)c2)C(=O)C(OC)=C(NCCc2ccc(OC)c(OC)c2)C1=O
inactive: [1] 109 % of control | [2] 98 % of control | [3] 96 % of control

O=C(C1C2CCC(CC2)C1C(=O)N1CCCCC1)N1CCCCC1 (centres undefined)
inactive: dose: 100.0 mg/kg/injection, schedule: Q04DX003 (ip), vehicle: saline 108 % of control | dose: 200.0 mg/kg/injection, schedule: Q04DX003 (ip), vehicle: saline 100 % of control | dose: 400.0 mg/kg/injection, schedule: Q04DX003 (ip), vehicle: saline 100 % of control

CCOC(=O)C1(C(C)C)OC2(O)C3CCCN3C(=O)C(C(C)C)N2C1=O (centres undefined)
inactive: dose: 3.12 mg/kg/injection, schedule: Q03HX024 (ip), vehicle: Klucel (hydroxypropylcellulose) (HPC) 98 % of control | dose: 6.25 mg/kg/injection, schedule: Q03HX024 (ip), vehicle: Klucel (hydroxypropylcellulose) (HPC) 97 % of control | dose: 8.25 mg/kg/injection, schedule: Q01DX009 (ip), vehicle: Klucel (hydroxypropylcellulose) (HPC) 97 % of control | dose: 12.5 mg/kg/injection, schedule: Q01DX009 (ip), vehicle: Klucel (hydroxypropylcellulose) (HPC) 98 % of control | dose: 12.5 mg/kg/injection, schedule: Q03HX024 (ip), vehicle: Klucel (hydroxypropylcellulose) (HPC) 98 % of control | dose: 16.5 mg/kg/injection, schedule: Q01DX009 (ip), vehicle: Klucel (hydroxypropylcellulose) (HPC) 99 % of control | dose: 25.0 mg/kg/injection, schedule: Q01DX001 (ip), vehicle: Klucel (hydroxypropylcellulose) (HPC) 95 % of control | dose: 25.0 mg/kg/injection, schedule: Q01DX009 (ip), vehicle: Klucel (hydroxypropylcellulose) (HPC) 109 % of control | dose: 25.0 mg/kg/injection, schedule: Q03HX024 (ip), vehicle: Klucel (hydroxypropylcellulose) (HPC) 100 % of control | dose: 25.0 mg/kg/injection, schedule: Q04DX003 (ip), vehicle: alcohol 97 % of control | dose: 33.0 mg/kg/injection, schedule: Q01DX009 (ip), vehicle: Klucel (hydroxypropylcellulose) (HPC) 100 % of control | dose: 50.0 mg/kg/injection, schedule: Q01DX001 (ip), vehicle: Klucel (hydroxypropylcellulose) (HPC) 101 % of control | dose: 50.0 mg/kg/injection, schedule: Q01DX009 (ip), vehicle: Klucel (hydroxypropylcellulose) (HPC) 105 % of control | dose: 50.0 mg/kg/injection, schedule: Q03HX024 (ip), vehicle: Klucel (hydroxypropylcellulose) (HPC) 93 % of control | dose: 50.0 mg/kg/injection, schedule: Q04DX003 (ip), vehicle: alcohol 106 % of control | dose: 66.0 mg/kg/injection, schedule: Q01DX009 (ip), vehicle: Klucel (hydroxypropylcellulose) (HPC) 98 % of control | dose: 100.0 mg/kg/injection, schedule: Q01DX001 (ip), vehicle: Klucel (hydroxypropylcellulose) (HPC) 95 % of control | [4] 100 % of control | dose: 100.0 mg/kg/injection, schedule: Q04DX003 (ip), vehicle: alcohol 96 % of control | dose: 200.0 mg/kg/injection, schedule: Q01DX001 (ip), vehicle: Klucel (hydroxypropylcellulose) (HPC) 104 % of control | [5] 98 % of control | dose: 200.0 mg/kg/injection, schedule: Q04DX003 (ip), vehicle: alcohol 98 % of control

CCCC(C)(O)C(=O)O (centres undefined)
inactive: dose: 25.0 mg/kg/injection, schedule: Q04DX002 (ip), vehicle: saline 100 % of control | dose: 50.0 mg/kg/injection, schedule: Q04DX002 (ip), vehicle: saline 103 % of control | dose: 100.0 mg/kg/injection, schedule: Q04DX002 (ip), vehicle: saline 95 % of control

CN1N=C([P+](c2ccccc2)(c2ccccc2)c2ccccc2)CC1(c1ccccc1)c1ccccc1
inactive: [6] 103 % of control | [7] 100 % of control

CCCCCCCOC(CN)C(Cl)(Cl)Cl (centres undefined)
inactive: dose: 12.5 mg/kg/injection, schedule: Q01DX001 (ip), vehicle: saline with Tween-80 104 % of control | dose: 12.5 mg/kg/injection, schedule: Q01DX009 (ip), vehicle: saline with Tween-80 100 % of control and 104 % of control | dose: 25.0 mg/kg/injection, schedule: Q01DX001 (ip), vehicle: saline with Tween-80 100 % of control | [8] 97 % of control and 91 % of control | dose: 25.0 mg/kg/injection, schedule: Q04DX002 (ip), vehicle: saline with Tween-80 103 % of control and 108 % of control | dose: 50.0 mg/kg/injection, schedule: Q01DX001 (ip), vehicle: saline with Tween-80 94 % of control | dose: 50.0 mg/kg/injection, schedule: Q04DX002 (ip), vehicle: saline with Tween-80 103 % of control and 105 % of control

S=C([S-])[P+](C1CCCCC1)(C1CCCCC1)C1CCCCC1
inactive: [9] 97 % of control | [10] 97 % of control | dose: 100.0 mg/kg/injection, schedule: Q04DX003 (ip), vehicle: saline with Tween-80 97 % of control | dose: 200.0 mg/kg/injection, schedule: Q01DX009 (ip), vehicle: saline with Tween-80 97 % of control | dose: 200.0 mg/kg/injection, schedule: Q04DX003 (ip), vehicle: saline with Tween-80 87 % of control

COC(=O)C(Br)(C(=O)OC)C(c1ccccc1)c1ccccc1
inactive: dose: 100.0 mg/kg/injection, schedule: Q04DX002 (ip), vehicle: other 90 % of control | dose: 200.0 mg/kg/injection, schedule: Q04DX002 (ip), vehicle: other 86 % of control | dose: 400.0 mg/kg/injection, schedule: Q04DX002 (ip), vehicle: other 93 % of control

O=C(O)CSc1nc2ccccc2s1
inactive: [10] 107 % of control

CCN(CC)C(=O)c1cccnc1
inactive: dose: 12.5 mg/kg/injection, schedule: Q01DX009 (ip), vehicle: saline 102 % of control | dose: 25.0 mg/kg/injection, schedule: Q01DX009 (ip), vehicle: saline 89 % of control | dose: 50.0 mg/kg/injection, schedule: Q01DX009 (ip), vehicle: saline 93 % of control | [6] 102 % of control | dose: 100.0 mg/kg/injection, schedule: Q01DX009 (ip), vehicle: saline 105 % of control | [7] 94 % of control | dose: 200.0 mg/kg/injection, schedule: Q01DX009 (ip), vehicle: saline 93 % of control | dose: 300.0 mg/kg/injection, schedule: Q01DX001 (ip), vehicle: saline 90 % of control

O=c1c2nccnc2[nH]n1-c1ccccc1
inactive: dose: 25.0 mg/kg/injection, schedule: Q04DX003 (ip), vehicle: Klucel (hydroxypropylcellulose) (HPC) 90 % of control | dose: 50.0 mg/kg/injection, schedule: Q04DX003 (ip), vehicle: Klucel (hydroxypropylcellulose) (HPC) 95 % of control

CC(=O)N[Si](C)(C)C
inactive: [1] 102 % of control | [2] 100 % of control | [3] 98 % of control

CC1(C)N=C(N)N=C(N)N1c1ccc(OCCCCNC(=O)Nc2cccc(S(=O)(=O)F)c2)c(Cl)c1
inactive: [8] 100 % of control | [9] 108 % of control | [10] 116 % of control

CCOC=Nc1ccc(-n2cnc3c(Cl)ncnc32)cc1C
inactive: dose: 100.0 mg/kg/injection, schedule: Q01DX001 (ip), vehicle: carboxymethylcellulose (CMC) 91 % of control | dose: 400.0 mg/kg/injection, schedule: Q01DX001 (ip), vehicle: carboxymethylcellulose (CMC) 98 % of control

Cc1ccc([N+](=O)[O-])c(O)c1[N+](=O)[O-]
inactive: [4] 104 % of control | [11] 102 % of control | [5] 93 % of control | [12] 89 % of control | [13] 102 % of control

CCCCNC(=O)Nc1ccccc1C(N)=O
inactive: [4] 97 % of control | [11] 98 % of control | [5] 95 % of control | [12] 94 % of control | dose: 400.0 mg/kg/injection, schedule: Q01DX009 (ip), vehicle: Klucel (hydroxypropylcellulose) (HPC) 105 % of control | [13] 96 % of control

CCOC(=O)/C(O)=C(\C=N\C(N)=O)C(=O)OCC
inactive: dose: 100.0 mg/kg/injection, schedule: Q04DX003 (ip), vehicle: saline sonified 93 % of control | dose: 200.0 mg/kg/injection, schedule: Q04DX003 (ip), vehicle: saline sonified 103 % of control | dose: 400.0 mg/kg/injection, schedule: Q04DX003 (ip), vehicle: saline sonified 95 % of control
